Patent publication US6380257B1, “Aromatic di-keto derivatives, processes for their production and their use as a pharmaceutical” (Aventis Pharma Deutschland GmbH, priority 1999, dated 2002)
Like-named read-outs stand apart in the source and are kept apart here. Values belong to the compound of their own block, whether it stands above or below them.

Assays:
[1] = target: T1, glucose-6-phosphate translocase from rat liver microsomes (Rattus norvegicus, UniProt F7EWB7); test: Inhibition of glucose-6-phosphate translocase from rat liver microsomes; type: biochemical
T1 construct: glucose-6-phosphate translocase from rat liver microsomes; from tissue; host or cells: rat liver microsomes
T1 sequence (F7EWB7 1-429): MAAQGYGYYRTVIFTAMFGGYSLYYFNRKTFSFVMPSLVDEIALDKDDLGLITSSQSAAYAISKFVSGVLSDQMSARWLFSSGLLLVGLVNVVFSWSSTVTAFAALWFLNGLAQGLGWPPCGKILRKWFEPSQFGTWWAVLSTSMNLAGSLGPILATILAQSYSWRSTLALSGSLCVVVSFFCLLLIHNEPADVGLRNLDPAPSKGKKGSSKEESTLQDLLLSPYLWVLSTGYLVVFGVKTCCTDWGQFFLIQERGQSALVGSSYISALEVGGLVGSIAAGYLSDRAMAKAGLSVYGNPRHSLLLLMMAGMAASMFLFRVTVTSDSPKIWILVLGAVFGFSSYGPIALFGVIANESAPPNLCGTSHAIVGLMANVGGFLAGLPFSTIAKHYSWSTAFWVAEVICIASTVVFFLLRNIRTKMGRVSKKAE

[2] = target: T2, microsomal glucose-6-phosphatase (Rattus norvegicus, UniProt P43428); test: Inhibition of microsomal glucose-6-phosphatase; type: biochemical
T2 construct: from tissue; host or cells: liver microsomes (rat inferred)
T2 sequence (P43428 1-357): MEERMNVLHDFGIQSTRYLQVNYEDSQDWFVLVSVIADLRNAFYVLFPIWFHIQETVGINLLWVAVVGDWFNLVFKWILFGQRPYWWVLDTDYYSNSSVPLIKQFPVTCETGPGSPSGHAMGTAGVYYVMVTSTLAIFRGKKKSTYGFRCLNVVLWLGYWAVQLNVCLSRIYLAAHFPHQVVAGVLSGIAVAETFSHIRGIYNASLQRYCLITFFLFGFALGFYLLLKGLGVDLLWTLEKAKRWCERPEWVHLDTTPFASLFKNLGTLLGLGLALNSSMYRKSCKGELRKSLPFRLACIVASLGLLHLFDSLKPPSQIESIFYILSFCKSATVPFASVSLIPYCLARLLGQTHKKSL

[3] = Stability of mumbaistatin in solution; type: physicochemical

- IC50 ([1]; read-out: Inhibition of glucose-6-phosphate translocase: IC50): > 100000 nM
Compound: COC(=O)CC1CCC2(O1)OC1(OC(=O)c3c(OC)cc4c(c31)C(=O)c1c(O)cccc1C4=O)c1c(OC)cccc12 (stereo not shown) [XIXB]

- IC50 ([1]; read-out: inhibits glucose-6-phosphate translocase with an IC50): ~1000 nM
Compound: NC(=O)c1c(O)cc2c(c1C(=O)c1c(O)cccc1C1(O)CCC(CC(=O)O)O1)C(=O)c1c(O)cccc1C2=O (stereo not shown) [XXIIIA]

- IC50 ([1]; rat liver microsomes, listed as mumbaistain, read-out: Inhibition of glucose-6-phosphate translocase, IC50): ~5 nM
- IC50 ([1]; rat liver microsomes, read-out: Inhibition of glucose-6-phosphate translocase, IC50): 5 nM
- Inhibition of microsomal glucose-6-phosphatase in 10 μM solution [2]: activity was not demonstrable
- stability in solution at acid pH ([3]; acid pH, conversion e.g. to compound of formula XIXD): rapidly undergoes a complex conversion
- stability in solution ([3]; pH of around 6 to 9): limited stability
Compound: mumbaistatin
